Test results published in patent publication US10011596B2, “2-amino-3-fluoro-3-(fluoromethyl)-6-methyl-6-phenyl-3,4,5,6-tetrahydropyridines as BACE1 inhibitors” (H. Lundbeck A/S, priority 2015, dated 2018).
pKi: −log10 of the molar value.

What was measured:
[1] = target: T1, human BACE1 (Homo sapiens, UniProt P56817); experiment: BACE1 efficacy assay (FRET-based, commercial BACE1 kit); assay type: biochemical; set-up: purchased Life Technologies P2985; details: test compound at 10 μM
Experimental: The efficacy assay was performed as a FRET-based assay using a commercially available BACE1 kit (Life Technologies, P2985). 2 μl test compound at 10 μM (final concentration) and 15 μl BACE1 enzyme from the kit (final concentration 3 nM) were preincubated for 15 minutes at room temperature before addition of 15 μl of substrate from the kit (250 nM final concentration) and incubated for additional 90 minutes at room temperature. The assay plate was subsequently read in a Pherastar (Ex540/Em590).

[2] = target: T1, human BACE1; experiment: BACE1 binding assay (SPA-based, radioligand displacement); set-up: biotin (biotinylated form); made in house; host or cells: Freestyle HEK293 cells; details: pH 4.5, 10 nM radioligand, 6 nM human BACE1, read-out: BACE1 binding affinity
Experimental: The binding assay was performed as SPA-based assay using a biotinylated form of human BACE1 recombinantly expressed and subsequently purified from Freestyle HEK293 cells. The binding assay was run in a 50 mM sodium acetate buffer, pH 4.5 containing 50 mM NaCl and 0.03% Tween-20 in white clear bottom 384 plates (Corning #3653). 10 nM (final concentration) radioligand ([^3H]-N-((1S,2R)-1-benzyl-3-cyclopropylamino-2-hydroxy-propyl)-5-(methanesulfonyl-methyl-amino)-N-((R)-1-phenyl-ethyl)-isophthalamide) (TRQ11569 purchased from GE Healthcare) was mixed with test compound at a given concentration, 6 nM (final concentration) human BACE1 and 25 μg Streptavidin coated PVT core SPA beads (RPNQ0007, GE Healthcare Life Sciences) in a total volume of 40 μl. Several concentrations of each test compound were tested in the assay for IC50 determination. The plates were incubated for one hour at room temperature and counted in a WaIlac Trilux counter. […] For each test compound, a IC50 value (the concentration mediating 50% inhibition of the specific binding of the radioligand) was determined from concentration-response curve and used to calculate the Ki from the equation Ki=IC50/(1+L/Kd), where L and Kd are the final concentration of the radioligand used in the assay and the dissociation constant of the radioligand, respectively. The Kd of the radioligand was determined from saturation binding experiments.

[3] = tested on: P-gp (MDR1); experiment: MDCK-MDR1 assay (permeability, efflux ratio); assay type: in vitro ADME; details: dog
Experimental: The permeability of the test compounds was assessed in MDCK-MDR1 cells that were cultured to confluency (4-6 days) in a 96 transwell plate. Test compounds were diluted with the transport buffer (HBSS+1% BSA) to a concentration of 0.5 μM and applied to the apical or basolateral side of the cell monolayer. Permeation of the test compounds from A to B direction or B to A direction was determined in triplicate over a 60-minute incubation time at 37° C. and 5% CO2 with a relative humidity of 95%. Test compounds were quantified by LC-MS/MS analysis based on the peaks area ratios of analyte/IS in both the receiver and donor wells of the transwell plate.
The apparent permeability coefficient Papp (cm/s) was calculated using the equation: Papp=(dCr/dt)×Vr/(A×C0)
Where dCr/dt is the cumulative concentration of compound in the receiver chamber as a function of time (μM/s); Vr is the solution volume in the receiver chamber (0.05 mL on the apical side; 0.25 mL on the basolateral side); A is the surface area for the transport, i.e. 0.0804 cm^2 for the area of the monolayer; C0 is the initial concentration in the donor chamber (μM).

T1 sequence (P56817 46-501): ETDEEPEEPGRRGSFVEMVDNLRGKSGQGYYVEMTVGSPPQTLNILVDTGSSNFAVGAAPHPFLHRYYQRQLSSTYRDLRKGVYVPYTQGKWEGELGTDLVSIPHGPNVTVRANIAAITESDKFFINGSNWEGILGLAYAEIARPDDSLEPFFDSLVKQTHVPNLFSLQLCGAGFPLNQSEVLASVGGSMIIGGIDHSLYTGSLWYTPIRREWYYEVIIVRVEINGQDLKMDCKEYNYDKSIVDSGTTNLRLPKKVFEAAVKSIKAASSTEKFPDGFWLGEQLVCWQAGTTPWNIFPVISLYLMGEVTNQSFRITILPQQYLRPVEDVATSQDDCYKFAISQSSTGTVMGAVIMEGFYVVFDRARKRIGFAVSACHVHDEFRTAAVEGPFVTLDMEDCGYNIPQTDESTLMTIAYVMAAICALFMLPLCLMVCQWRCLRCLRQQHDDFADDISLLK

SMILES	inhibition at 10 µM [1] [%]	pKi [2]	efflux ratio at 60 min, 0.5 µM [3]
COc1ccc(C(=O)Nc2cc(F)c(F)c([C@]3(C)CC[C@@](F)(CF)C(N)=N3)c2)nc1 [Compound 16, N-[3-[(2S,5S)-6-Amino-5-fluoro-5-(fluoromethyl)-2-methyl-2,3,4,5-tetrahydropyridin-2-yl]-4,5-difluoro-phenyl]-5-methoxy-pyridine-2-carboxamide]	104		
COc1ccc(C(=O)Nc2cc(F)c(F)c([C@]3(C)CC[C@](F)(CF)C(N)=N3)c2)nc1 [Compound 19, N-[3-[(2S,5R)-6-Amino-5-fluoro-5-(fluoromethyl)-2-methyl-2,3,4,5-tetrahydropyridin-2-yl]-4,5-difluoro-phenyl]-5-methoxy-pyridine-2-carboxamide]	104		
C[C@@]1(c2cc(NC(=O)c3ccc(F)cn3)cc(F)c2F)CC[C@](F)(CF)C(N)=N1 [Compound 18, N-[3-[(2S,5R)-6-Amino-5-fluoro-5-(fluoromethyl)-2-methyl-2,3,4,5-tetrahydropyridin-2-yl]-4,5-difluoro-phenyl]-5-fluoro-pyridine-2-carboxamide]	103	6.52	
NC1=N[C@](CF)(c2cc(NC(=O)c3ccc(F)cn3)ccc2F)CC[C@]1(F)CF [Compound 24, N-[3-[(2S,5R)-6-amino-5-fluoro-2,5-bis(fluoromethyl)-2,3,4,5-tetrahydropyridin-2-yl]-4-fluoro-phenyl]-5-fluoro-pyridine-2-carboxamide]		6.74	0.88
NC1=N[C@](CF)(c2cc(NC(=O)c3ccc(F)cn3)ccc2F)CC[C@@]1(F)CF [Compound 21, N-[3-[(2S,5S)-6-amino-5-fluoro-2,5-bis(fluoromethyl)-2,3,4,5-tetrahydropyridin-2-yl]-4-fluoro-phenyl]-5-fluoro-pyridine-2-carboxamide]		7.17	0.97
[2H]C([2H])([2H])Oc1ccc(C(=O)Nc2ccc(F)c([C@]3(C)CC[C@@](F)(CF)C(N)=N3)c2)nc1 [Compound 2, N-(3-((2S,5S)-6-Amino-5-fluoro-5-(fluoromethyl)-2-methyl-2,3,4,5-tetrahydropyridin-2-yl)-4-fluorophenyl)-5-(methoxy-d3)picolinamide]	104	7.70	2.32
C[C@@]1(c2cc(NC(=O)c3ccc(F)cn3)cc(F)c2F)CC[C@@](F)(CF)C(N)=N1 [Compound 15, N-[3-[(2S,5S)-6-Amino-5-fluoro-5-(fluoromethyl)-2-methyl-2,3,4,5-tetrahydropyridin-2-yl]-4,5-difluoro-phenyl]-5-fluoro-pyridine-2-carboxamide]	104	7.28	1.17
COc1cnc(C(=O)Nc2ccc(F)c([C@]3(CF)CC[C@](F)(CF)C(N)=N3)c2)cn1 [Compound 26, N-[3-[(2S,5R)-6-amino-5-fluoro-2,5-bis(fluoromethyl)-2,3,4,5-tetrahydropyridin-2-yl]-4-fluoro-phenyl]-5-methoxy-pyrazine-2-carboxamide]		6.80	0.92
COc1cnc(C(=O)Nc2ccc(F)c([C@]3(CF)CC[C@@](F)(CF)C(N)=N3)c2)cn1 [Compound 23, N-[3-[(2S,5S)-6-amino-5-fluoro-2,5-bis(fluoromethyl)-2,3,4,5-tetrahydropyridin-2-yl]-4-fluoro-phenyl]-5-methoxy-pyrazine-2-carboxamide]		7.77	1.06
COc1cnc(C(=O)Nc2cc(F)c(F)c([C@]3(C)CC[C@](F)(CF)C(N)=N3)c2)cn1 [Compound 20, N-[3-[(2S,5R)-6-Amino-5-fluoro-5-(fluoromethyl)-2-methyl-2,3,4,5-tetrahydropyridin-2-yl]-4,5-difluoro-phenyl]-5-methoxy-pyrazine-2-carboxamide]	102	6.64	0.77

The next lines start with the values.

inhibition at 10 µM [1] [%]	pKi [2]	efflux ratio at 60 min, 0.5 µM [3]	SMILES
106	7.34	7	Cc1nc(C(=O)Nc2ccc(F)c([C@]3(C)CC[C@@](F)(CF)C(N)=N3)c2)co1 [Compound 6]
103	7.66	10.6	C[C@@]1(c2cc(NC(=O)c3ccn(C(F)F)n3)ccc2F)CC[C@@](F)(CF)C(N)=N1 [Compound 10]
103	6.85		C[C@@]1(c2cc(NC(=O)c3ccc(Cl)cc3)ccc2F)CC[C@@](F)(CF)C(N)=N1 [Compound 12, N-(3-((2S,5S)-6-Amino-5-fluoro-5-(fluoromethyl)-2-methyl-2,3,4,5-tetrahydropyridin-2-yl)-4-fluorophenyl)-4-chlorobenzamide]
	7.21	2.36	Cc1csc(C(=O)Nc2ccc(F)c([C@]3(C)CC[C@@](F)(CF)C(N)=N3)c2)n1 [Compound 8, N-(3-((2S,5S)-6-Amino-5-fluoro-5-(fluoromethyl)-2-methyl-2,3,4,5-tetrahydropyridin-2-yl)-4-fluorophenyl)-4-methylthiazole-2-carboxamide]
103	6.89	1.06	COc1ccc(C(=O)Nc2ccc(F)c([C@]3(C)CC[C@](F)(CF)C(N)=N3)c2)nc1 [Compound 14, N-(3-((2S,5R)-6-Amino-5-fluoro-5-(fluoromethyl)-2-methyl-2,3,4,5-tetrahydropyridin-2-yl)-4-fluorophenyl)-5-methoxypicolinamide]
104	7.17		Cn1cc(Br)nc1C(=O)Nc1ccc(F)c([C@]2(C)CC[C@@](F)(CF)C(N)=N2)c1 [Compound 7, N-(3-((2S,5S)-6-Amino-5-fluoro-5-(fluoromethyl)-2-methyl-2,3,4,5-tetrahydropyridin-2-yl)-4-fluorophenyl)-4-bromo-1-methyl-1H-imidazole-2-carboxamide]
102	7.96	1.34	C[C@@]1(c2cc(NC(=O)c3ccc(Cl)cn3)ccc2F)CC[C@@](F)(CF)C(N)=N1 [Compound 4, N-(3-((2S,5S)-6-Amino-5-fluoro-5-(fluoromethyl)-2-methyl-2,3,4,5-tetrahydropyridin-2-yl)-4-fluorophenyl)-5-chloropicolinamide]
103	7.59	8.61	C[C@@]1(c2cc(NC(=O)c3coc(C(F)F)n3)ccc2F)CC[C@@](F)(CF)C(N)=N1 [Compound 9]
105	8.00	4.87	Cc1cc(C#N)cnc1C(=O)Nc1ccc(F)c([C@]2(C)CC[C@@](F)(CF)C(N)=N2)c1 [Compound 3, N-(3-((2S,5S)-6-Amino-5-fluoro-5-(fluoromethyl)-2-methyl-2,3,4,5-tetrahydropyridin-2-yl)-4-fluorophenyl)-5-cyano-3-methylpicolinamide]
106	7.66	0.89	COc1ccc(C(=O)Nc2ccc(F)c([C@]3(C)CC[C@@](F)(CF)C(N)=N3)c2)nc1 [Compound 1, N-(3-((2S,5S)-6-Amino-5-fluoro-5-(fluoromethyl)-2-methyl-2,3,4,5-tetrahydropyridin-2-yl)-4-fluorophenyl)-5-methoxypicolinamide]
